Data published in the supplement of paper PMC10307832.

Key:
Test in all cases: relative viability (nuclei count vs DMSO), 5 days (fraction); higher = more cells survive
Sunitinib + Trametinib = compound: CCN(CC)CCNC(=O)c1c(C)[nH]c(/C=C2\C(=O)Nc3ccc(F)cc32)c1C [Sunitinib] + CC(=O)Nc1cccc(-n2c(=O)n(C3CC3)c(=O)c3c(Nc4ccc(I)cc4F)n(C)c(=O)c(C)c32)c1 [Trametinib] (partner 0.02 µM)
Outline: (§1)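 Relative viability divides the nuclei count in treated wells by that in vehicle wells. Lung cancer cell lines were seeded in 1536-well plates, dosed by pin tool the next day, and fixed and stained after 5 days in one step with final 0.05% Triton X-100, 1% formaldehyde and 1 ug/ml Hoechst. Dosing was a single drug or a fixed anchor-drug dose plus five library-drug doses (not always all listed) in √10 steps, and values are medians of duplicate plates imaged at 4×.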

Sunitinib + Bortezomib = compound: CCN(CC)CCNC(=O)c1c(C)[nH]c(/C=C2\C(=O)Nc3ccc(F)cc32)c1C [Sunitinib] + CC(C)C[C@H](NC(=O)[C@H](Cc1ccccc1)NC(=O)c1cnccn1)B(O)O [Bortezomib] (partner 0.002 µM)
Outline: as §1

Sunitinib + Pictilisib = compound: CCN(CC)CCNC(=O)c1c(C)[nH]c(/C=C2\C(=O)Nc3ccc(F)cc32)c1C [Sunitinib] + CS(=O)(=O)N1CCN(Cc2cc3nc(-c4cccc5[nH]ncc45)nc(N4CCOCC4)c3s2)CC1 [Pictilisib] (partner 1 µM)
Outline: as §1

Sunitinib + Olaparib = compound: CCN(CC)CCNC(=O)c1c(C)[nH]c(/C=C2\C(=O)Nc3ccc(F)cc32)c1C [Sunitinib] + O=C(c1cc(Cc2n[nH]c(=O)c3ccccc23)ccc1F)N1CCN(C(=O)C2CC2)CC1 [Olaparib] (partner 8 µM)
Outline: as §1

Cell Line	relative viability (Sunitinib + Trametinib; first compound 0.02 µM)	relative viability (Sunitinib + Trametinib; first compound 0.06325 µM)	relative viability (Sunitinib + Trametinib; first compound 0.2 µM)	relative viability (Sunitinib + Trametinib; first compound 0.6325 µM)	relative viability (Sunitinib + Trametinib; first compound 2 µM)	relative viability (Sunitinib + Bortezomib; first compound 0.02 µM)	relative viability (Sunitinib + Bortezomib; first compound 0.06325 µM)	relative viability (Sunitinib + Bortezomib; first compound 0.2 µM)	relative viability (Sunitinib + Bortezomib; first compound 0.6325 µM)	relative viability (Sunitinib + Bortezomib; first compound 2 µM)	relative viability (Sunitinib + Pictilisib; first compound 0.02 µM)	relative viability (Sunitinib + Pictilisib; first compound 0.06325 µM)	relative viability (Sunitinib + Pictilisib; first compound 0.2 µM)	relative viability (Sunitinib + Pictilisib; first compound 0.6325 µM)	relative viability (Sunitinib + Pictilisib; first compound 2 µM)	relative viability (Sunitinib + Olaparib; first compound 0.02 µM)	relative viability (Sunitinib + Olaparib; first compound 0.06325 µM)	relative viability (Sunitinib + Olaparib; first compound 0.2 µM)	relative viability (Sunitinib + Olaparib; first compound 0.6325 µM)	relative viability (Sunitinib + Olaparib; first compound 2 µM)
HARA	0.599	0.976	0.841	0.943	0.707	1	1.17	1.32	1.22	1.14	0.397	0.374	0.606	0.31	0.323	0.718	0.966	0.801	0.786	0.7
HCC-15	0.36	0.316	0.305	0.352	0.312	0.941	1.16	1.17	1.02	1.05	0.68	0.791	0.888	0.749	0.774	0.762	0.742	0.807	0.768	0.625
HCC-44	1.06	1.14	1.1	1.08		0.893	0.898	1.1		0.88	0.524	0.653	0.968	0.786	0.598	0.958	0.97	0.979	1	1.05
HCC-78	0.76	0.812	0.985	0.737	0.701	0.508	0.554	0.518	0.464	0.494	0.206		0.227		0.246	0.765	0.82	0.865	0.866	0.891
HCC-366	0.313	0.407	0.382	0.389	0.339	0.98	1.05	1.04	1.15	0.989	0.0687	0.181	0.128	0.175	0.137	0.343	0.355	0.482	0.449	0.42
HCC-827	0.555	0.61	0.558	0.613	0.618	1.05	1.15	1.04		1.12	1.01	1.09	1.11	1.11	1.13	0.722	0.696	0.622	0.648	0.597
HOP-62	0.376	0.364	0.389	0.374	0.379	0.798	0.83	0.947	0.871	1.13	0.66	1.08	0.745	0.696	0.724	0.453	0.374	0.449	0.472	0.63
LC-2-ad	0.894	0.951	0.896	0.825	0.722	0.883	1.04	1.05	1.07	0.932	0.51	0.461	0.444	0.285	0.28	0.68	0.746	0.749	0.729	0.825
LCLC-97TM1	0.197	0.215	0.206	0.207	0.205	0.653	0.967	0.713	0.774	0.757	0.199	0.261		0.213	0.233	0.377	0.401	0.548	0.477	0.442
